{"source": "patent US20200368247A1", "about": "“CENICRIVIROC FOR THE TREATMENT OF FIBROSIS” (Tobira Therapeutics, Inc., priority 2014, published 2020)", "key": {"HIV-1": {"system": "HIV-1", "assay": "Study 202 Phase 2b, virologic response (HIV-1 RNA <50 copies/mL, FDA Snapshot), with FTC/TDF", "excerpt": "Subjects with a history of HIV-2, hepatitis B and/or C, cirrhosis of the liver or any known active or chronic active liver disease were excluded from the study.\nThe primary efficacy endpoint was virologic response at Week 24, defined as HIV-1 RNA <50 copies/mL using the FDA Snapshot Algorithm."}, "[1]": {"assay": "Study 202 fasting metabolic laboratory parameters", "assay_type": "in vivo, human", "excerpt": "All abnormalities in total cholesterol, LDL cholesterol, triglycerides, or glucose were Grade 1 or Grade 2.\nMean baseline values and changes from baseline in HbA1c, HOMA-IR, fasting LDL, fasting HDL, fasting total cholesterol, fasting total cholesterol/HDL ratio, and fasting triglycerides are shown in Table 36."}, "[2]": {"conditions": "All CVC (N = 115), EFV (N = 28), through Week 48"}, "[3]": {"conditions": "CVC 100 mg (N = 58), through Week 48"}, "[4]": {"conditions": "CVC 200 mg (N = 57), through Week 48"}}, "data": [{"smiles": "CCCCOCCOc1ccc(-c2ccc3c(c2)/C=C(/C(=O)Nc2ccc([S@@+]([O-])Cc4cncn4CCC)cc2)CCCN3CC(C)C)cc1", "note": "[CVC, (S)-8-[4-(2-Butoxyethoxy)phenyl]-1-isobutyl-N-(4-{[(1-propyl-1H-imidazol-5-yl)methyl]sulfinyl}phenyl)-1,2,3,4-tetrahydro-1-benzazocine-5-carboxamide]", "values": [{"measurement": "subjects who prematurely discontinued the study", "setting": "HIV-1; CVC 100 mg arm", "result": 29, "unit": "%"}, {"measurement": "subjects with virologic success (HIV-1 RNA <50 copies/mL)", "setting": "HIV-1; CVC 100 mg, Week 24", "result": 76, "unit": "%"}, {"measurement": "subjects with virologic success (HIV-1 RNA <50 copies/mL)", "setting": "HIV-1; CVC 100 mg, Week 48", "result": 68, "unit": "%"}, {"measurement": "subjects who prematurely discontinued the study", "setting": "HIV-1; CVC 200 mg arm", "result": 27, "unit": "%"}, {"measurement": "subjects with virologic success (HIV-1 RNA <50 copies/mL)", "setting": "HIV-1; CVC 200 mg, Week 24", "result": 73, "unit": "%"}, {"measurement": "subjects with virologic success (HIV-1 RNA <50 copies/mL)", "setting": "HIV-1; CVC 200 mg, Week 48", "result": 64, "unit": "%"}, {"measurement": "Any fasting laboratory abnormality, worst Grade 1", "setting": "[1]; [2]", "result": "9 (8%) n (%)"}, {"measurement": "Any fasting laboratory abnormality, worst Grade 2", "setting": "[1]; [2]", "result": "7 (6%) n (%)"}, {"measurement": "Any fasting laboratory abnormality, worst Grade 3", "setting": "[1]; [2]", "result": "0 n (%)"}, {"measurement": "Any fasting laboratory abnormality, worst Grade 4", "setting": "[1]; [2]", "result": "0 n (%)"}, {"measurement": "Any graded (Grade 1-4) fasting laboratory abnormality", "setting": "[1]; [2]", "result": "16 (14%) n (%)"}, {"measurement": "Fasting LDL cholesterol abnormality, Grade 1", "setting": "[1]; [2]", "result": "3 (3%) n (%)"}, {"measurement": "Fasting LDL cholesterol abnormality, Grade 2", "setting": "[1]; [2]", "result": "3 (3%) n (%)"}, {"measurement": "Fasting LDL cholesterol abnormality, Grade 3", "setting": "[1]; [2]", "result": "0 n (%)"}, {"measurement": "Fasting LDL cholesterol abnormality, Grade 4", "setting": "[1]; [2]", "result": "0 n (%)"}, {"measurement": "Fasting LDL cholesterol abnormality, any grade", "setting": "[1]; [2]", "result": "6 (5%) n (%)"}, {"measurement": "Fasting glucose (serum, high) abnormality, Grade 1", "setting": "[1]; [2]", "result": "3 (3%) n (%)"}, {"measurement": "Fasting glucose (serum, high) abnormality, Grade 2", "setting": "[1]; [2]", "result": "2 (2%) n (%)"}, {"measurement": "Fasting glucose (serum, high) abnormality, Grade 3", "setting": "[1]; [2]", "result": "0 n (%)"}, {"measurement": "Fasting glucose (serum, high) abnormality, Grade 4", "setting": "[1]; [2]", "result": "0 n (%)"}, {"measurement": "Fasting glucose (serum, high) abnormality, any grade", "setting": "[1]; [2]", "result": "5 (4%) n (%)"}, {"measurement": "Fasting total cholesterol abnormality, Grade 1", "setting": "[1]; [2]", "result": "5 (4%) n (%)"}, {"measurement": "Fasting total cholesterol abnormality, Grade 2", "setting": "[1]; [2]", "result": "3 (3%) n (%)"}, {"measurement": "Fasting total cholesterol abnormality, Grade 3", "setting": "[1]; [2]", "result": "0 n (%)"}, {"measurement": "Fasting total cholesterol abnormality, Grade 4", "setting": "[1]; [2]", "result": "0 n (%)"}, {"measurement": "Fasting total cholesterol abnormality, any grade", "setting": "[1]; [2]", "result": "8 (7%) n (%)"}, {"measurement": "Fasting triglycerides abnormality, Grade 1", "setting": "[1]; [2]", "result": "0 n (%)"}, {"measurement": "Fasting triglycerides abnormality, Grade 2", "setting": "[1]; [2]", "result": "1 (<1%) n (%)"}, {"measurement": "Fasting triglycerides abnormality, Grade 3", "setting": "[1]; [2]", "result": "0 n (%)"}, {"measurement": "Fasting triglycerides abnormality, Grade 4", "setting": "[1]; [2]", "result": "0 n (%)"}, {"measurement": "Fasting triglycerides abnormality, any grade", "setting": "[1]; [2]", "result": "1 (<1%) n (%)"}, {"measurement": "Fasting triglycerides, mean change from baseline", "setting": "[1]; All CVC, EFV, Week 4", "result": -5, "unit": "mg/dL"}, {"measurement": "HOMA-IR, mean change from baseline", "setting": "[1]; All CVC, EFV, Week 4", "result": "−0.30"}, {"measurement": "HbA1c, mean change from baseline", "setting": "[1]; All CVC, EFV, Week 4", "result": "−0.03", "unit": "% Hb"}, {"measurement": "HbA1c, mean change from baseline", "setting": "[1]; All CVC, EFV, Week 12", "result": "−0.06", "unit": "% Hb"}, {"measurement": "HbA1c, mean change from baseline", "setting": "[1]; All CVC, EFV, Week 24", "result": 0.06, "unit": "% Hb"}, {"measurement": "HbA1c, mean change from baseline", "setting": "[1]; All CVC, EFV, Week 48", "result": 0.10, "unit": "% Hb"}, {"measurement": "Any fasting laboratory abnormality, worst Grade 1", "setting": "[1]; [3]", "result": "3 (5%) n (%)"}, {"measurement": "Any fasting laboratory abnormality, worst Grade 2", "setting": "[1]; [3]", "result": "1 (2%) n (%)"}, {"measurement": "Any fasting laboratory abnormality, worst Grade 3", "setting": "[1]; [3]", "result": "0 n (%)"}, {"measurement": "Any fasting laboratory abnormality, worst Grade 4", "setting": "[1]; [3]", "result": "0 n (%)"}, {"measurement": "Any graded (Grade 1-4) fasting laboratory abnormality", "setting": "[1]; [3]", "result": "4 (7%) n (%)"}, {"measurement": "Fasting LDL cholesterol abnormality, Grade 1", "setting": "[1]; [3]", "result": "1 (2%) n (%)"}, {"measurement": "Fasting LDL cholesterol abnormality, Grade 2", "setting": "[1]; [3]", "result": "1 (2%) n (%)"}, {"measurement": "Fasting LDL cholesterol abnormality, Grade 3", "setting": "[1]; [3]", "result": "0 n (%)"}, {"measurement": "Fasting LDL cholesterol abnormality, Grade 4", "setting": "[1]; [3]", "result": "0 n (%)"}, {"measurement": "Fasting LDL cholesterol abnormality, any grade", "setting": "[1]; [3]", "result": "2 (3%) n (%)"}, {"measurement": "Fasting glucose (serum, high) abnormality, Grade 1", "setting": "[1]; [3]", "result": "0 n (%)"}, {"measurement": "Fasting glucose (serum, high) abnormality, Grade 2", "setting": "[1]; [3]", "result": "0 n (%)"}, {"measurement": "Fasting glucose (serum, high) abnormality, Grade 3", "setting": "[1]; [3]", "result": "0 n (%)"}, {"measurement": "Fasting glucose (serum, high) abnormality, Grade 4", "setting": "[1]; [3]", "result": "0 n (%)"}, {"measurement": "Fasting glucose (serum, high) abnormality, any grade", "setting": "[1]; [3]", "result": "0 n (%)"}, {"measurement": "Fasting total cholesterol abnormality, Grade 1", "setting": "[1]; [3]", "result": "3 (5%) n (%)"}, {"measurement": "Fasting total cholesterol abnormality, Grade 2", "setting": "[1]; [3]", "result": "0 n (%)"}, {"measurement": "Fasting total cholesterol abnormality, Grade 3", "setting": "[1]; [3]", "result": "0 n (%)"}, {"measurement": "Fasting total cholesterol abnormality, Grade 4", "setting": "[1]; [3]", "result": "0 n (%)"}, {"measurement": "Fasting total cholesterol abnormality, any grade", "setting": "[1]; [3]", "result": "3 (5%) n (%)"}, {"measurement": "Fasting triglycerides abnormality, Grade 1", "setting": "[1]; [3]", "result": "0 n (%)"}, {"measurement": "Fasting triglycerides abnormality, Grade 2", "setting": "[1]; [3]", "result": "0 n (%)"}, {"measurement": "Fasting triglycerides abnormality, Grade 3", "setting": "[1]; [3]", "result": "0 n (%)"}, {"measurement": "Fasting triglycerides abnormality, Grade 4", "setting": "[1]; [3]", "result": "0 n (%)"}, {"measurement": "Fasting triglycerides abnormality, any grade", "setting": "[1]; [3]", "result": "0 n (%)"}, {"measurement": "change in fasting total cholesterol (mainly LDL cholesterol)", "setting": "[1]; CVC 100 mg and 200 mg, through Week 48", "result": "decrease"}, {"measurement": "Fasting triglycerides, mean change from baseline", "setting": "[1]; CVC 100 mg, Week 4", "result": -8, "unit": "mg/dL"}, {"measurement": "HbA1c, mean change from baseline", "setting": "[1]; CVC 100 mg, Week 4", "result": 0.01, "unit": "% Hb"}, {"measurement": "HbA1c, mean change from baseline", "setting": "[1]; CVC 100 mg, Week 12", "result": "−0.04", "unit": "% Hb"}, {"measurement": "Fasting triglycerides, mean change from baseline", "setting": "[1]; CVC 100 mg, Week 24", "result": -8, "unit": "mg/dL"}, {"measurement": "HbA1c, mean change from baseline", "setting": "[1]; CVC 100 mg, Week 24", "result": 0.06, "unit": "% Hb"}, {"measurement": "HbA1c, mean change from baseline", "setting": "[1]; CVC 100 mg, Week 48", "result": 0.09, "unit": "% Hb"}, {"measurement": "Any fasting laboratory abnormality, worst Grade 1", "setting": "[1]; [4]", "result": "6 (11%) n (%)"}, {"measurement": "Any fasting laboratory abnormality, worst Grade 2", "setting": "[1]; [4]", "result": "6 (11%) n (%)"}, {"measurement": "Any fasting laboratory abnormality, worst Grade 3", "setting": "[1]; [4]", "result": "0 n (%)"}, {"measurement": "Any fasting laboratory abnormality, worst Grade 4", "setting": "[1]; [4]", "result": "0 n (%)"}, {"measurement": "Any graded (Grade 1-4) fasting laboratory abnormality", "setting": "[1]; [4]", "result": "12 (21%) n (%)"}, {"measurement": "Fasting LDL cholesterol abnormality, Grade 1", "setting": "[1]; [4]", "result": "2 (4%) n (%)"}, {"measurement": "Fasting LDL cholesterol abnormality, Grade 2", "setting": "[1]; [4]", "result": "2 (4%) n (%)"}, {"measurement": "Fasting LDL cholesterol abnormality, Grade 3", "setting": "[1]; [4]", "result": "0 n (%)"}, {"measurement": "Fasting LDL cholesterol abnormality, Grade 4", "setting": "[1]; [4]", "result": "0 n (%)"}, {"measurement": "Fasting LDL cholesterol abnormality, any grade", "setting": "[1]; [4]", "result": "4 (7%) n (%)"}, {"measurement": "Fasting glucose (serum, high) abnormality, Grade 1", "setting": "[1]; [4]", "result": "3 (5%) n (%)"}, {"measurement": "Fasting glucose (serum, high) abnormality, Grade 2", "setting": "[1]; [4]", "result": "2 (4%) n (%)"}, {"measurement": "Fasting glucose (serum, high) abnormality, Grade 3", "setting": "[1]; [4]", "result": "0 n (%)"}, {"measurement": "Fasting glucose (serum, high) abnormality, Grade 4", "setting": "[1]; [4]", "result": "0 n (%)"}, {"measurement": "Fasting glucose (serum, high) abnormality, any grade", "setting": "[1]; [4]", "result": "5 (9%) n (%)"}, {"measurement": "Fasting total cholesterol abnormality, Grade 1", "setting": "[1]; [4]", "result": "2 (4%) n (%)"}, {"measurement": "Fasting total cholesterol abnormality, Grade 2", "setting": "[1]; [4]", "result": "3 (5%) n (%)"}, {"measurement": "Fasting total cholesterol abnormality, Grade 3", "setting": "[1]; [4]", "result": "0 n (%)"}, {"measurement": "Fasting total cholesterol abnormality, Grade 4", "setting": "[1]; [4]", "result": "0 n (%)"}, {"measurement": "Fasting total cholesterol abnormality, any grade", "setting": "[1]; [4]", "result": "5 (9%) n (%)"}, {"measurement": "Fasting triglycerides abnormality, Grade 1", "setting": "[1]; [4]", "result": "0 n (%)"}, {"measurement": "Fasting triglycerides abnormality, Grade 2", "setting": "[1]; [4]", "result": "1 (2%) n (%)"}, {"measurement": "Fasting triglycerides abnormality, Grade 3", "setting": "[1]; [4]", "result": "0 n (%)"}, {"measurement": "Fasting triglycerides abnormality, Grade 4", "setting": "[1]; [4]", "result": "0 n (%)"}]}]}
